According to US20220098257A1, “Methods of Treating Epilepsy via Phosphodiesterase 4 (PDE4) Inhibition” (Path Therapeutics, Inc., priority 2019, published 2022):
Where two headings read alike, the source gives them in different places.

Assays:
[1] = test system: mouse Scn1a mutant brain ex vivo slices; test: Extracellular field recordings in mouse Scn1a mutant brain ex vivo slices; conditions: AN2728, 40 μM; adult Scn1a heterozygous mutant brain slices; n=3
Method: The mouse Scn1a mutants employed in this Experimental section were heterozygous mutants (Scn1a−/− mice die early postnatally). […] In this assay, adult Scn1a mutant brains were rapidly removed and sectioned for electrophysiological assays. Here, extracellular field recordings were conducted to measure baseline electrophysiological activity, prior to the addition of PDE4 inhibitor (AN2728, 40 μM). A decrease in hyperexcitable amplitude and frequency was measured in the presence of AN2728.

[2] = test system: 6 Hz-induced psychomotor seizures; test: 6 Hz psychomotor seizure induction mouse model; type: in vivo
Source text: To examine the acute effect of PDE4 inhibition on seizures, the 6 Hz psychomotor model that represents therapy-resistant limbic seizures was employed (White et al., 1995; Barton et al., 2001). Briefly, compounds were screened for their ability to block psychomotor seizures induced by a low-frequency (6 Hz), long-duration (3 sec) stimulus delivered through corneal electrodes. These seizures are believed to model partial seizures observed in humans. […]

scn1lab mutant zebrafish [3] = test: Electrophysiological recording of seizure-like hyperexcitability in the tectum opticum of scn1lab zebrafish; type: in vivo
Method: Briefly, 6 dpf zebrafish (WT and scn1lab mutants) were paralyzed (α-bungarotoxin, 1 mg/ml, Tocris) and embedded in agarose. The dorsal side of the zebrafish was exposed to the agarose gel surface and a glass microelectrode was placed into the tectum opticum of zebrafish and electrophysiological measurements were recorded. […] Care was taken not to disrupt the pipette or move the fish in any manner. Seizure-like activity was defined by high-frequency, large amplitude spikes, as defined elsewhere (Baraban et al, 2013). Both itcal (>1000 ms in duration) and inter-ictal (<300 ms in duration) activity was observed upon zooming in on a section of the EEG trace (data not shown), consistent with epileptiform events.

scn1lab mutant zebrafish [4] = type: in vivo; conditions: for OCR response / bioenergetics relative to WT baseline: 40 μM dose of PDE4 inhibitor
Method: The scn1lab mutant zebrafish employed in this Experimental section are homozygous, loss-of-function mutants. To measure bioenergetics in whole, living zebrafish (further details of which may be found in Ibhazehiebo et al. (2018) Brain 141(3):744-761), zebrafish larvae (5 days post-fertilization, dpf) were seeded into 24-well islet capture microplates (Agilent) and pre-exposed to vehicle or drug for 20 minutes prior to the start of the assay. Oxygen consumption rates (OCR) were measured using the Seahorse Bioanalyzer (Agilent).
In a similar assay to that described above, scn1lab mutants are exposed to a 40 μM dose of a range of PDE4 inhibitors. […]

Scn1a mutant mice = test: Hyperthermia-induced seizures in Scn1a mutant mice; type: in vivo, mouse; conditions: for block of seizures (partial = seizure temperature changed; full = no seizure elicited): FIG. 15 comparison, pre-treatment with PDE4 inhibitor
Method: As shown in FIG. 13 (panels A and B), an example PDE4 inhibitor (AN2728) protects against hyperthermia-induced seizures in Scn1a mutant mice. In this model, a Scn1a mutant animal's core temperature is raised using an external heat source and consequently, brain temperature is raised and this leads to hyperthermic seizures. These hyperthermic seizures are thought to represent febrile seizures. In the Scn1a mutants, seizures begin around 41° C., whereas in the WT seizures are rarely detected even at temperatures as high as 43° C. […] FIG. 12B is the same data graphed differently.
A partial block in seizures is noted when the temperature required to induce a seizure is statistically different than wildtype and a full block in seizures occurs when no seizure is elicited following pre-treatment with the PDE4 inhibitor.

[5] = test system: Dravet syndrome (DS) patients; conditions: cited from earlier work
kcna1 mutant zebrafish = test: Bioenergetics in kcna1 mutant zebrafish (model of generalizable epilepsy and SUDEP); type: in vivo
[6] = after treatment with AN2728, n=6-10

N#Cc1ccc(Oc2ccc3c(c2)COB3O)cc1 [AN2728, 5-(4-cyanophenoxy)-2,3-dihydro-1-hydroxy-2,1-benzoxaborole]
hyperexcitable amplitude [1]: decrease | hyperexcitable frequency [1]: decrease | animals that responded (protected) in 6 Hz test ([2]; dosed 30 min prior to the 6 Hz test, highest dose 300 mg/kg): 1 | animals that responded (protected) in 6 Hz test ([2]; treated two hours prior to the 6 Hz test): three out of four | seizure-like activity (scn1lab mutant zebrafish [3]; AN2728, 40 μM, 6 dpf scn1lab mutants): blocked this seizure-like activity to baseline levels | peak amplitude (scn1lab mutant zebrafish [3]; [6]): decrease | seizure frequency (scn1lab mutant zebrafish [3]; [6]): decrease | OCR response relative to WT (scn1lab mutant zebrafish [4]; AN2728 1 nM-100 nM doses, 5 dpf larvae): ineffective | OCR response relative to WT (scn1lab mutant zebrafish [4]; AN2728 1 μM, 5 dpf larvae): fully restoring OCR response to WT levels | OCR response relative to WT (scn1lab mutant zebrafish [4]; AN2728 10 μM, 5 dpf larvae): fully restoring OCR response to WT levels | toxicity (drop of OCR response below mutant levels) (scn1lab mutant zebrafish [4]; AN2728 100 μM, 5 dpf larvae): toxic | restoration of bioenergetics (OCR) (scn1lab mutant zebrafish [4]; AN2728 dose series 1 nM-100 μM, 5 dpf larvae, 20 min pre-exposure): dose-dependent restoration of bioenergetics | animals that do not ever experience a seizure (Scn1a mutant mice; AN2728 treatment): 3 | protection against hyperthermia-induced seizures (Scn1a mutant mice; AN2728 treatment): protected against hyperthermia-induced seizures | temperature at which the remaining animals experience a seizure (Scn1a mutant mice; AN2728 treatment, untreated mutants seize around 41° C.): ~42 °C | block of seizures (partial = seizure temperature changed; full = no seizure elicited) (Scn1a mutant mice): partially or fully block seizures

C=C(C)[C@@H]1CCC(C)=C[C@H]1c1c(O)cc(CCCCC)cc1O [CBD, cannabidiol]
patients achieving full seizure freedom [5]: < 5% | patients with reduced seizure frequency [5]: 43%

COc1ccc([C@]2(C#N)CC[C@@H](C(=O)O)CC2)cc1OC1CCCC1 [Cilomilast, cilomilast]
OCR response / bioenergetics relative to WT baseline (scn1lab mutant zebrafish [4]): restored OCR response to baseline levels

CCOc1ccc(/C=C2\NCCc3cc(OCC)c(OCC)cc32)cc1OCC [Drotaverine, drotaverine]
OCR response / bioenergetics relative to WT baseline (scn1lab mutant zebrafish [4]): effective in restoring bioenergetics to baseline levels

Nc1nc(N)nc(-c2cc(Cl)ccc2Cl)n1 [Irsogladine, irsogladine]
OCR response / bioenergetics relative to WT baseline (scn1lab mutant zebrafish [4]): effective in restoring bioenergetics to baseline levels

O=C(Nc1c(Cl)cncc1Cl)c1ccc(OC(F)F)c(OCC2CC2)c1 [Roflumilast, roflumilast]
OCR response / bioenergetics relative to WT baseline (scn1lab mutant zebrafish [4]): restored OCR response to baseline levels | bioenergetics relative to wild-type baseline (kcna1 mutant zebrafish): restore bioenergetics in a kcna1 mutant zebrafish back to baseline levels | block of seizures (partial = seizure temperature changed; full = no seizure elicited) (Scn1a mutant mice): partially or fully block seizures

COc1ccc(C2CNC(=O)C2)cc1OC1CCCC1 (stereo not drawn) [Rolipram, rolipram]
block of seizures (partial = seizure temperature changed; full = no seizure elicited) (Scn1a mutant mice): partially or fully block seizures | protection against hyperthermia-induced seizures (Scn1a mutant mice; rolipram, 3 mg/kg): neuroprotective against hyperthermia-induced seizures | temperature required to induce a seizure (Scn1a mutant mice; rolipram, 3 mg/kg): raising | severity of the seizure, Racine scale level (Scn1a mutant mice; rolipram, 3 mg/kg, from mostly 4-5 level without treatment): 3

Cn1c(=O)c2[nH]cnc2n(C)c1=O [Theophylline, theophylline]
OCR response / bioenergetics relative to WT baseline (scn1lab mutant zebrafish [4]): effective in restoring bioenergetics to baseline levels | bioenergetics relative to wild-type baseline (kcna1 mutant zebrafish): restore bioenergetics in a kcna1 mutant zebrafish back to baseline levels
